From PMC11767929 (Molecules, 2025)
Where two headings read alike, the source gives them in different places.

What was measured:
Format in all cases: cell-based
[1] = system: HCT 116 (human colorectal cancer cell line); assay: MTT cytotoxicity assay, HCT 116 cells; conditions: for IC50: read-out: IC50 HCT 116; for SI (HCT 116): selectivity index: ratio of IC50 NHDF-Neo to IC50 HCT 116
Experimental: (§1) Cytotoxicity screening of the obtained glycoconjugates, their potential metabolites, and substrates used for their synthesis was conducted using the MTT assay.
(§2) All cells were kept in a humidified incubator at 37 °C in a 5% CO2 atmosphere.
(§3) Cell viability was assessed by the MTT (3-[4,5–dimethylthiazol-2-yl]-2,5-diphenyltetrazolium bromide) test (ACROS Organics). Stock solutions of tested compounds were prepared in DMSO and stored accordingly.
(§4) Cells treated with glycoconjugates or potential metabolites were incubated for another 24–72 h (depending on the cell line). Subsequently, 50 µL MTT solution (0.5 mg/mL) in RPMI medium without Phenol Red was added to each well. After 3 h of incubation, the MTT solution was removed, and the precipitated formazan was dissolved in 100 µL of DMSO. Finally, the absorbance of the solubilized formazan crystals was measured at the 570 nm wavelength. Each experiment was carried out in three independent iterations with four technical repetitions. […] Cell viability was expressed as:Cell viability (%) = (ODsample − ODblank)/(ODcontrol − ODblank) × 100%.

[2] = system: MCF-7 (human breast adenocarcinoma cell line); assay: MTT cytotoxicity assay, MCF-7 cells; conditions: for IC50: Homo sapiens, read-out: IC50 MCF-7; for SI (MCF-7): selectivity index: ratio of IC50 NHDF-Neo to IC50 MCF-7
Experimental: as §1, §2, §3, §4

[3] = system: NHDF-Neo (normal human dermal fibroblast-neonatal cells); assay: MTT cytotoxicity assay, NHDF-Neo healthy cells; conditions: read-out: IC50 NHDF-Neo
Experimental: as §1, §2, §3, §4

[4] = system: HCT 116 (human colorectal cancer cell line); assay: MTT assay in medium with 20 µM CuCl2, HCT 116 cells; conditions: addition of CuCl2 at 20 µM; for IC50: Homo sapiens, HCT-116, MTT assay, 24 h, read-out: IC50 HCT 116 + Cu2+; for SI (HCT 116) + Cu2+: ratio of IC50 NHDF-Neo to IC50 HCT 116
Experimental: (§5) Therefore, it seemed reasonable to conduct additional experiments for the glycoconjugates for which the likely mechanism of action is based on the chelation of metal ions. Since copper can be toxic to cells, it was necessary to test the toxicity of different concentrations of copper salt on the proliferation of all cell line types. Cell cultures under standard conditions were treated with copper solutions of various concentrations, and their effect on cell proliferation was verified by the MTT assay. Cells with the non-supplemented medium were used as a reference for 100% cell viability. […] The antiproliferative activities of 8-AQ glycoconjugates were further tested in the presence of the addition of Cu^2+ ions. HCT 116, MCF-7, and NHDF-Neo cells were treated with solutions of glycoconjugates 13–18 in a culture medium supplemented with 20 µM copper chloride, and their proliferation was measured using the MTT assay. The control consisted of cells cultured in a medium with the same concentration of copper salt added. […] This effect was more pronounced for the MCF-7 cell line (Figure 2). A significant decrease in MCF-7 cell proliferation was observed after treatment with glycoconjugates at concentrations of 100 µM and 50 µM in the presence of Cu^2+ compared to treatment with glycoconjugates alone (cell viability 2–23% and 6–79%, respectively, for each glycoconjugate concentration).
(§6) Cells were seeded in 96-well plates at a concentration of 1 × 10^4 (HCT 116, NHDF-Neo) or 5 × 10^3 (MCF-7) per well. Cell cultures were incubated for 24 h at 37 °C in a humidified atmosphere with 5% CO2. The culture medium was then removed and replaced with 100 µL of the tested compounds solution at varying concentrations (from 25 µM to 200 µM) in the medium with the addition of CuCl2. The final concentration of CuCl2 was 20 µM in each well. Following 24 or 72 h of incubation, the MTT assay was performed to assess cell viability.

[5] = system: MCF-7 (human breast adenocarcinoma cell line); assay: MTT assay in medium with 20 µM CuCl2, MCF-7 cells; conditions: for IC50: Homo sapiens, MCF7, MTT assay, 72 h, read-out: IC50 MCF-7 + Cu2+; for IC50 / SI (MCF-7) + Cu2+: addition of CuCl2 at 20 µM; for increase of cytotoxicity in the presence of Cu(II) ions versus without copper: MCF-7 cells, 20 µM CuCl2; for SI (MCF-7) + Cu2+: ratio of IC50 NHDF-Neo to IC50 MCF-7
Experimental: as §5, §6

[6] = system: NHDF-Neo (normal human dermal fibroblast-neonatal cells); assay: MTT assay in medium with 20 µM CuCl2, NHDF-Neo cells; conditions: addition of CuCl2 at 20 µM, 24 h, read-out: IC50 NHDF-Neo + Cu2+
Experimental: as §5, §6

[7] = Homo sapiens, HCT-116, 24 h, MTT assay, incubation time 24 h
[8] = MCF7, MTT assay, incubation time 72 h
[9] = MTT assay, incubation time 24 h

SMILES	SI (HCT 116) [1]	SI (MCF-7) [2]	IC50 [1, 7]	IC50 [2, 8]	IC50 [3, 9]	other results
Nc1cccc2cccnc12 [Compound 1, 8-Aminoquinoline, reference compound]	–	–	–	–	–	IC50 ([1]; Homo sapiens, HCT-116, 24 h): > 800 µM; IC50 ([2]; MCF7, 72 h): > 400 µM; IC50 ([3]; 24 h): > 800 µM
Oc1cccc2cccnc12 [Compound 2, 8-hydroxyquinoline, reference compound]	1	3.1	–	–	–	IC50 ([1]; Homo sapiens, HCT-116, 24 h): 9.33 ± 0.22 µM; IC50 ([2]; MCF7, 72 h): 3.01 ± 0.05 µM; IC50 ([3]; 24 h): 9.34 ± 0.25 µM
C#CCNc1cccc2cccnc12 [Compound 3, N-(prop-2-yn-1-yl)quinolin-8-amine]	–	–	550 ± 16.4 µM	295 ± 8.49 µM	> 800 µM	–
[N-]=[N+]=NCCCNc1cccc2cccnc12 [Compound 5, N-(3-azidopropyl)quinolin-8-amine]	–	–	115 ± 13.4 µM	47.1 ± 8.49 µM	415 ± 10.6 µM	–
[N-]=[N+]=NCCCOc1cccc2cccnc12 [Compound 6, 8-(3-azidopropoxy)quinoline]	–	–	–	–	–	IC50 ([3]; 24 h): 782 ± 8.7 µM
CC(=O)OC[C@H]1O[C@@H](N=[N+]=[N-])[C@H](OC(C)=O)[C@@H](OC(C)=O)[C@@H]1OC(C)=O [Compound 7, 2,3,4,6-tetra-O-acetyl-β-D-glucopyranosyl azide]	–	–	> 800 µM	> 800 µM	> 800 µM	–
CC(=O)OC[C@H]1O[C@@H](N=[N+]=[N-])[C@H](OC(C)=O)[C@@H](OC(C)=O)[C@H]1OC(C)=O [Compound 8, 2,3,4,6-tetra-O-acetyl-β-D-galactopyranosyl azide]	–	–	> 800 µM	> 800 µM	> 800 µM	–
CC(=O)OC[C@H]1O[C@@H](OCCN=[N+]=[N-])[C@H](OC(C)=O)[C@@H](OC(C)=O)[C@@H]1OC(C)=O [Compound 9, 2-azidoethyl 2,3,4,6-tetra-O-acetyl-β-D-glucopyranoside]	–	–	> 800 µM	> 800 µM	> 800 µM	–
CC(=O)OC[C@H]1O[C@@H](OCCN=[N+]=[N-])[C@H](OC(C)=O)[C@@H](OC(C)=O)[C@H]1OC(C)=O [Compound 10, 2-azidoethyl 2,3,4,6-tetra-O-acetyl-β-D-galactopyranoside]	–	–	> 800 µM	> 800 µM	> 800 µM	–
C#CCO[C@@H]1O[C@H](COC(C)=O)[C@@H](OC(C)=O)[C@H](OC(C)=O)[C@H]1OC(C)=O [Compound 11, propargyl 2,3,4,6-tetra-O-acetyl-β-D-glucopyranoside]	–	–	> 800 µM	> 800 µM	> 800 µM	–
C#CCO[C@@H]1O[C@H](COC(C)=O)[C@H](OC(C)=O)[C@H](OC(C)=O)[C@H]1OC(C)=O [Compound 12, propargyl 2,3,4,6-tetra-O-acetyl-β-D-galactopyranoside]	–	–	> 800 µM	> 800 µM	> 800 µM	–
CC(=O)OC[C@H]1O[C@@H](n2cc(CNc3cccc4cccnc34)nn2)[C@H](OC(C)=O)[C@@H](OC(C)=O)[C@@H]1OC(C)=O [Compound 13]	–	–	> 800 µM	> 800 µM	> 800 µM	IC50 [4]: 118 ± 5 µM; SI (HCT 116) + Cu2+ [4]: >1.7; IC50 [5]: 71.3 ± 4.5 µM; increase of cytotoxicity in the presence of Cu(II) ions versus without copper [5]: more than ten times; SI (MCF-7) + Cu2+ [5]: >2.8; CC50 [6]: > 200 µM
CC(=O)OC[C@H]1O[C@@H](n2cc(COc3cccc4cccnc34)nn2)[C@H](OC(C)=O)[C@@H](OC(C)=O)[C@@H]1OC(C)=O [Compound 13a, reference compound]	0.8	1.0	69 ± 2.5 µM	57.7 ± 3.3 µM	57.4 ± 3.2 µM	–
CC(=O)OC[C@H]1O[C@@H](n2cc(CNc3cccc4cccnc34)nn2)[C@H](OC(C)=O)[C@@H](OC(C)=O)[C@H]1OC(C)=O [Compound 14]	>2.8	>3.9	282 ± 20.7 µM	204.2 ± 1.4 µM	> 800 µM	IC50 [4]: 87.1 ± 15.9 µM; IC50 [5]: 34.7 ± 5 µM; increase of cytotoxicity in the presence of Cu(II) ions versus without copper [5]: approximately six-fold; SI (MCF-7) + Cu2+ [5]: >5.8; CC50 [6]: > 200 µM
CC(=O)OC[C@H]1O[C@@H](n2cc(COc3cccc4cccnc34)nn2)[C@H](OC(C)=O)[C@@H](OC(C)=O)[C@H]1OC(C)=O [Compound 14a, reference compound]	1.4	7.8	22.7 ± 1.6 µM	4.1 ± 0.03 µM	31.9 ± 1.6 µM	–
CC(=O)OC[C@H]1O[C@@H](OCCn2cc(CNc3cccc4cccnc34)nn2)[C@H](OC(C)=O)[C@@H](OC(C)=O)[C@@H]1OC(C)=O [Compound 15]	>2.8	>7.8	284.2 ± 2.3 µM	103 ± 5.7 µM	> 800 µM	IC50 [4]: 80.5 ± 2.2 µM; SI (HCT 116) + Cu2+ [4]: >2.5; IC50 [5]: 34.1 ± 5 µM; SI (MCF-7) + Cu2+ [5]: >5.9; CC50 [6]: > 200 µM
CC(=O)OC[C@H]1O[C@@H](OCCn2cc(CNc3cccc4cccnc34)nn2)[C@H](OC(C)=O)[C@@H](OC(C)=O)[C@H]1OC(C)=O [Compound 16]	>2.7	–	227 ± 6.3 µM	227 ± 6.3 µM	> 800 µM	IC50 [1, 9]: 290 ± 9.7 µM; IC50 [4]: 70.8 ± 3.9 µM; SI (HCT 116) + Cu2+ [4]: >2.8; IC50 [5]: 31.8 ± 4.9 µM; increase of cytotoxicity in the presence of Cu(II) ions versus without copper [5]: approximately six-fold; SI (MCF-7) + Cu2+ [5]: >6.3; CC50 [6]: > 200 µM
CC(=O)OC[C@H]1O[C@@H](OCc2cn(CCCNc3cccc4cccnc34)nn2)[C@H](OC(C)=O)[C@@H](OC(C)=O)[C@@H]1OC(C)=O [Compound 17]	3.6	5.3	116 ± 5.9 µM	78.1 ± 9.3 µM	416 ± 12.4 µM	IC50 [4]: 71.9 ± 1.7 µM; SI (HCT 116) + Cu2+ [4]: >2.8; IC50 [5]: 34.8 ± 0.7 µM; SI (MCF-7) + Cu2+ [5]: >5.7; CC50 [6]: > 200 µM
CC(=O)OC[C@H]1O[C@@H](OCc2cn(CCCNc3cccc4cccnc34)nn2)[C@H](OC(C)=O)[C@@H](OC(C)=O)[C@H]1OC(C)=O [Compound 18]	3.2	6.0	182 ± 15.6 µM	96.8 ± 6 µM	585 ± 7.1 µM	IC50 [4]: 43.4 ± 2.4 µM; SI (HCT 116) + Cu2+ [4]: >4.6; IC50 [5]: 35.4 ± 0.1 µM; SI (MCF-7) + Cu2+ [5]: >5.6; CC50 [6]: > 200 µM
OCCn1cc(CNc2cccc3cccnc23)nn1 [Compound 19]	>1.2	>6.9	–	116 ± 2.7 µM	> 800 µM	–
OCCn1cc(COc2cccc3cccnc23)nn1 [Compound 19a, reference compound]	–	–	> 800 µM	> 800 µM	> 800 µM	–
OCc1cn(CCCNc2cccc3cccnc23)nn1 [Compound 20, 4-Hydroxymethyl-1-(8-quinolinylaminopropyl)-1H-1,2,3-triazol]	>2.4	>5.3	329 ± 5.4 µM	150 ± 1.8 µM	> 800 µM	–
OCc1cn(CCCOc2cccc3cccnc23)nn1 [Compound 20a, reference compound]	–	>1.3	> 800 µM	602.9 ± 1.9 µM	> 800 µM	–
